Assay results from PubChem BioAssay (NCI).
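96-well plates; 48 h exposure; 5 concentrations. Endpoints by linear interpolation between flanking doses. Not reached: highest tested concentration assigned. TGI is the concentration that stops growth completely.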

Assays:
Assay in all cases: inhibition of tumour cell growth, NCI panel, 48 h
KM20L2 colon = tested on: KM20L2 colon
CCRF-CEM leukemia = tested on: CCRF-CEM leukemia
LXFL 529 NSCLC = tested on: LXFL 529 NSCLC
XF 498 CNS = tested on: XF 498 CNS
M19-MEL melanoma = tested on: M19-MEL melanoma
DLD-1 colon = tested on: DLD-1 colon
DMS 273 small cell lung = tested on: DMS 273 small cell lung
EKVX NSCLC = tested on: EKVX NSCLC
HCT-15 colon = tested on: HCT-15 colon
RXF-631 renal = tested on: RXF-631 renal
RPMI-8226 leukemia = tested on: RPMI-8226 leukemia
K-562 leukemia = tested on: K-562 leukemia
A549 NSCLC = tested on: A549 NSCLC
IGROV1 ovarian = tested on: IGROV1 ovarian
DMS 114 small cell lung = tested on: DMS 114 small cell lung
HOP-18 NSCLC = tested on: HOP-18 NSCLC
SNB-78 CNS = tested on: SNB-78 CNS

| Compound | TGI (KM20L2 colon) [µM] | TGI (CCRF-CEM leukemia) [µM] | TGI (LXFL 529 NSCLC) [µM] | TGI (XF 498 CNS) [µM] | TGI (M19-MEL melanoma) [µM] | TGI (DLD-1 colon) [µM] | TGI (DMS 273 small cell lung) [µM] | TGI (EKVX NSCLC) [µM] | TGI (HCT-15 colon) [µM] | TGI (RXF-631 renal) [µM] | TGI (RPMI-8226 leukemia) [µM] | TGI (K-562 leukemia) [µM] | TGI (A549 NSCLC) [µM] | TGI (IGROV1 ovarian) [µM] | TGI (DMS 114 small cell lung) [µM] | TGI (HOP-18 NSCLC) [µM] | TGI (SNB-78 CNS) [µM] |
| --- | --- | --- | --- | --- | --- | --- | --- | --- | --- | --- | --- | --- | --- | --- | --- | --- | --- |
| Cc1cc(N(CCC#N)CCC#N)ccc1/C(Sc1ccccc1)=C(\NC(=O)/C=C/c1ccccc1)C(=O)Sc1ccccc1 | 8.09 | 15.3 | 12.6 | 30.4 | 14.7 | 9.95 | 26.2 | 54.2 | 26.4 | > 32.2 | 6.07 | > 58.7 | 16 | 2.78 | 4.53 | 51.1 | 24.6 |
| Cc1c(N)c(C#N)c2n(C)c3ncccc3n2c1=O | > 100 | > 100 | > 100 | > 100 | > 100 | > 100 | > 100 | > 100 | > 100 | – | > 100 | > 100 | > 100 | – | – | > 100 | > 100 |
| O=C1NC(=S)NC(=O)C1=Cc1ccc([N+](=O)[O-])o1 | 43.1 | 73.6 | 30.5 | 52.3 | 36.8 | 39 | 37.8 | 42.8 | 32.6 | 33.5 | 54 | 86.7 | > 100 | 60.1 | 34.6 | 35.3 | 49.3 |
| CC(=O)c1ccc(NC(=O)C(=O)CC(=O)c2sc(-n3nc(-c4ccccc4)cc3-c3ccccc3)nc2C)cc1 | > 100 | > 100 | > 100 | – | > 100 | > 100 | > 100 | > 100 | > 100 | > 100 | > 100 | > 100 | > 100 | > 100 | > 100 | – | > 100 |
| CCN(CC)CC(C(C)=O)C(c1ccccc1)c1c(O)c2ccccc2oc1=O (centres undefined) | > 100 | > 100 | > 100 | > 100 | > 100 | > 100 | > 100 | > 100 | > 100 | – | > 100 | > 100 | > 100 | > 100 | > 100 | > 100 | > 100 |
| Cc1cc(C(O)CCCc2ccccc2)cc(C)c1O (centres undefined) | > 100 | > 100 | > 100 | – | > 100 | – | – | 75.9 | > 100 | > 100 | > 100 | > 100 | > 100 | > 100 | > 100 | > 100 | > 100 |
| [N-]=[N+]=NC1(Cc2ccccc2)C(=O)Nc2ccccc2C1=O (centres undefined) | > 100 | > 100 | > 100 | > 100 | > 100 | > 100 | > 100 | > 100 | > 100 | – | – | > 100 | > 100 | > 100 | > 100 | > 100 | > 100 |
| CN1CC=C(C#CC(C)(C)O)CC1 | – | > 37.5 | – | – | – | – | – | > 37.5 | > 37.5 | – | > 37.5 | > 37.5 | > 37.5 | > 37.5 | – | – | – |
| CN1CCOC1(C)c1ccccc1 (centres undefined) | – | > 100 | – | – | – | – | – | > 100 | > 100 | – | > 100 | > 100 | > 100 | > 100 | – | – | – |
| COc1ccc(/C(=N/Nc2nc3ccccc3n2Cc2ccccc2)C(=O)O)cc1 | – | 27.8 | – | – | – | – | – | > 100 | > 100 | – | 55.8 | 68.5 | > 100 | 40.7 | – | – | – |
| COC(=O)C1=C(N)C2=C(N)Oc3ccccc3C2CC1=C(C#N)C#N (centres undefined) | – | > 100 | – | – | – | – | – | 84.4 | 36.8 | – | 48.6 | 57.3 | > 100 | 48.4 | – | – | – |
| NN/C(=N\S(=O)(=O)c1cc(S(=O)(=O)c2ccccc2)cs1)Nc1ccc(Cl)cc1 | – | 69.2 | – | – | – | – | – | 55.7 | > 100 | – | > 100 | > 100 | > 100 | > 100 | – | – | – |
| COC(=O)C1=C(C)NC(CF)=C(C(=O)OC)C1c1cccc2c(=O)c3ccccc3oc12 (centres undefined) | – | > 100 | – | – | – | – | – | > 100 | > 100 | – | > 100 | > 100 | > 100 | 18.9 | – | – | – |
| COc1ccc(NCc2cccc3c(=O)c4ccc(Cl)cc4oc23)cc1 | – | > 100 | – | – | – | – | – | > 100 | > 100 | – | > 100 | > 100 | > 100 | > 100 | – | – | – |
| O=C1NC(=Nc2ccccc2Cl)N/C1=C\c1c(Cl)cccc1Cl | – | > 100 | – | – | – | – | – | 79.3 | > 100 | – | 56.6 | > 100 | > 100 | > 100 | – | – | – |
| CN(C)C12C=CC=CC3=C(c4ccccc4)C(c4ccccc4)=C(c4ccccc4)C31c1ccccc1C2 (centres undefined) | – | > 100 | – | – | – | – | – | > 100 | > 100 | – | > 100 | > 100 | > 100 | > 100 | – | – | – |
| C#CCC(O)c1ccc(OC)c(OCc2ccccc2)c1 (centres undefined) | – | > 100 | – | – | – | – | – | > 100 | > 100 | – | > 100 | > 100 | > 100 | > 100 | – | – | – |
| C=C1[C@@H](OC(C)=O)/C=C/C2C3C(=O)[C@@](C)(OC(C)=O)[C@H]([C@H](OC(C)=O)[C@]4(O)[C@@H](C)C(=O)O[C@H]4[C@H]1Cl)[C@@]23C (some centres undefined) | – | > 100 | – | – | – | – | – | > 100 | > 100 | – | > 100 | > 100 | > 100 | > 100 | – | – | – |
| COC(=O)c1cc(C#N)[nH]c1-c1ccc(Br)s1 | – | 49.9 | – | – | – | – | – | 17.1 | 28 | – | > 73.3 | > 48.4 | 23 | 20.9 | – | – | – |
| O=C(NCCc1ccccn1)c1ccc2cc(C(=O)N3CC(CCl)c4ccc([N+](=O)[O-])cc43)[nH]c2c1 (centres undefined) | – | > 100 | – | – | – | – | – | > 100 | > 100 | – | > 100 | > 100 | > 100 | > 100 | – | – | – |
| C[C@H]1[C@H]2[C@H](C[C@@]3(C)C4=CC[C@H]5C(C)(C)[C@@H](OC6OCC(O)C(O)C6O)CC[C@@]56C[C@@]46CC[C@]23C)O[C@@]2(O)[C@@H]1OC(C)(C)[C@H]2O (some centres undefined) | – | 3.24 | – | – | – | – | – | 2.61 | 3.43 | – | 4.68 | 50 | 5.5 | 1.85 | – | – | – |
| CC(=O)n1nc(-c2[nH]c(C)c(-c3nn(C(C)=O)c(=S)o3)c2C)oc1=S | – | > 71.4 | – | – | – | – | – | > 100 | > 100 | – | > 100 | > 100 | > 100 | > 100 | – | – | – |
| NC(=S)NN=Cc1ccccc1OCc1cccc(COc2ccccc2C=NNC(N)=S)n1 | – | > 100 | – | – | – | – | – | > 50.6 | > 100 | – | > 100 | > 100 | > 100 | 31.6 | – | – | – |
| COC(=O)c1ccccc1/C=C1\Cc2ccc3c(c2C1=O)CCC3 | – | > 100 | – | – | – | – | – | > 100 | > 100 | – | > 100 | > 100 | > 100 | > 100 | – | – | – |
| O=c1c2c3c(sc2nc2n1sc1nc4sc5c(c4c(=O)n12)CCCC5)CCCC3 | – | 60.7 | – | – | – | – | – | 27.8 | > 100 | – | > 63.2 | > 63.3 | > 100 | > 100 | – | – | – |
